From US5512548A, “CETP inhibitor polypeptide, antibodies against the synthetic polypeptide and prophylactic and therapeutic anti-atherosclerosis treatments” (Southwest Foundation for Biomedical Research, priority 1994, dated 1996)

System: CETP
Experiment: Cholesteryl ester transfer assay (CE transfer from 3H CE-HDL3 to VLDL+LDL with LPDS as CETP source)
Assay type: biochemical, baboon (Papio sp.)
Conditions: electroeluted from gels, increasing concentrations, lipoproteins from low HDL1 baboons
Procedure: The CE transfer activity of a sample was assayed by a modification of a procedure described previously (Kushwaha et al, (1986), supra).
Briefly, ^3 H CE-labeled HDL3 containing 50-100 μg of CE from low HDL1 baboons was incubated with VLDL+LDL containing 100-300 μg CE in the presence of LPDS. The acceptor lipoproteins and the LPDS were obtained from low HDL1 baboon plasma (chow diet). In some cases the HDL3 was obtained from high HDL1 baboons maintained on the HCHF diet.
The incubations were carried out at 4° C. (control) and 37° C. for 4-6 hrs, and terminated by placing the samples on ice. The assay mixture was then ultracentrifuged to separate VLDL+LDL having a […], and the radioactivity in the lipoproteins was counted as described previously (Kushwaha et al, (1986), supra). Any difference observed in the radioactivity transferred from HDL to VLDL+LDL at 4° C. and 37° C. was attributed to CETP activity in the LPDS.
Time course experiments gave a linear response up to 7 hrs. Similarly, the CETP activity was linear with increasing LPDS, up to 140 μl LPDS, which was derived from an equivalent volume of plasma. […]
The percent difference between the control experiment and the assay with inhibitor peptide was expressed as the inhibitor activity. […]

Albumin
effect on the transfer of CE from HDL to VLDL+LDL (CETP activity): no effect
